Measured values taken from patent publication US9975893B2, “Pyrazolo[3,4-c]pyridine derivatives” (CSPC ZHONGQI PHARMACEUTICAL TECHNOLOGY (SHIJIAZHUANG) CO., …, priority 2014, dated 2018).

Legend:
Factor Xa = target: T1, Factor Xa (Homo sapiens, UniProt P00742); assay: Anti-Factor Xa activity assay (chromogenic substrate CS-11(22)); assay type: biochemical; conditions: ratio of compound IC50 to apixaban IC50; Factor Xa 0.1 U/ml, absorbance at 405 nm, 37° C.
T1 construct: purchased MERK
Experimental: I. Anti-Factor Xa Activity Assay
Substrate: CS-1122 (Hyphen)
Buffer: 50 mM TrisHCl, 150 mM NaCl, PH8.3
100 μL of buffer, 50 μL of different concentrations of compounds (diluted with buffer) and 50 μl of 0.1 U/ml Factor Xa enzyme (diluted with buffer) were added to a 96-well plate. After 15 min of exposure, 50 μL of chromogenic substrate 2.5 mg/ml CS-11 (22) was added. The substrate hydrolysis was monitored by measuring absorbance at 405 nm at 37° C. for up to 30 min (interval: 30 seconds) using a microplate spectrophotometer. IC50 was calculated by bliss.

Male SD rats [1] = assay: Arteriovenous shunt model in rats; assay type: in vivo, rat; parameters: concentration or dose not given beside the values; conditions: rats given orally 2-4 hours before shunt opened; shunt 15 minutes; thrombus weight, treated vs. mean vehicle
Description: III. Arteriovenous Shunt Model in Rats
Two 10 cm-long polyethylene tubings (1.50 and 2.88 mm of inner and outer diameter, respectively) linked to a central part (8 cm-long, 2.11 and 3.77 mm of inner and outer diameter, respectively) containing a 6 cm silk thread and filled with heparin (3.125 U/ml) were placed between the right carotid artery and the left jugular vein in rats.
Male SD rats were anesthetized by intraperitoneal injection of 10% chloral hydrate after oral dose, inverted fixation, then the right catotid artery and left vena jugularis externa were isolated, the proximal and distal sutures of catotid artery were tied. The syringe needle were cannulated into the catotid artery and fasted, the other of the tube was cannulated into the right vena jugularis externa. Rats were given orally 2-4 hours before the shunt was opened. Blood flowed from the right carotid artery into the polyethylene tubing and then return to left vena jugularis externa. The shunt was then disconnected 15 minutes later and the silk thread covered with thrombus was immediately withdrawn and weighed. The wet weight of the thrombus was determined. Then the silk thread was dried at 60° C. for 4 h to get the dry weight of the thrombus. The anti-thrombotic effects of these agents were expressed as percentage inhibition of thrombus formation based on the treated vs. the corresponding mean vehicle.

Male SD rats [2] = assay: Rat tail bleeding model; assay type: in vivo; conditions: rat tail transected 0.5 to 4 hours after administration; prolongation = ratio of treated vs. mean vehicle value; relative to apixaban
Experimental: II Rat Tail Bleeding Model
Male SD rats were allocated randomly and administrated. After the administration, the rats were anesthetized by intraperitoneal injection of 10% chloral hydrate. At the time point of 0.5 to 4 hours (Tmax in PK) after the administration, the tails of anesthetized rats were transected 3 mm from the tip and vertically immersed in saline at 37° C. The time point when the continuous blood flow ceased for >30 s was measured. The prolongation of bleeding time was expressed as a ratio of treated vs. the mean vehicle value. Effects of compounds were determined as described below.

T1 sequence (P00742 235-488 limits assumed): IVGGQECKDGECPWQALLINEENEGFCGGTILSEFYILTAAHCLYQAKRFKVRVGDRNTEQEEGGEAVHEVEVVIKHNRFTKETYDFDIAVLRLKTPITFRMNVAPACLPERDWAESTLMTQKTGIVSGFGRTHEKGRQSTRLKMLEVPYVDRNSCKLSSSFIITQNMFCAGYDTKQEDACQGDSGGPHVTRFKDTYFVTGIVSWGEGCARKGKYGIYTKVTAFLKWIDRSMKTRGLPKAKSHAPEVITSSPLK
T1 sequence (P00742 41-179 partner limits assumed): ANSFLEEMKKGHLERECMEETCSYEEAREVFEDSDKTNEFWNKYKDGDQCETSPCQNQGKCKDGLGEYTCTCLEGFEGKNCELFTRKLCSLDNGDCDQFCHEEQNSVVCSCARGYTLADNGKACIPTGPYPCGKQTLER

SMILES | IC50(Compound)/IC50(apixaban) (Factor Xa) | Inhibition of thrombus formation (%) (Male SD rats [1]) | The Prolongation of bleeding time (compound)/The Prolongation of bleeding time(apixaban) (Male SD rats [2])
CCOc1ccc(-n2nc(C(N)=O)c3c2C(=O)N(c2ccc(-n4ccccc4=O)c(C)c2)CC3)cc1 [A 37, 1-(4-ethoxyphenyl)-6-(3-methyl-4-(2-oxopyridin-1(2H)-yl)phenyl)-7-oxo-4,5,6,7-tetrahydro-1H-pyrazolo[3,4-c]pyridine-3-carboxamide] | <1 | 63.7% | <1
CCOc1ccc(-n2nc(C(N)=O)c3c2C(=O)N(c2ccc(-n4ccccc4=O)c(C)c2)CC3)cc1F [A 38, 1-(3-fluoro-4-ethoxyphenyl)-6-(3-methyl-4-(2-oxopyridin-1(2H)-yl)phenyl)-7-oxo-4,5,6,7-tetrahydro-1H-pyrazolo[3,4-c]pyridine-3-carboxamide] | <1 | 70.5% | <1
CCOc1ccc(-n2nc(C(N)=O)c3c2C(=O)N(c2ccc(-n4cccc(C)c4=O)c(C)c2)CC3)cc1 [A 39, 1-(4-ethoxyphenyl)-6-(3-methyl-4-(3-methyl-2-oxopyridin-1(2H)-yl)phenyl)-7-oxo-4,5,6,7-tetrahydro-1H-pyrazolo[3,4-c]pyridine-3-carboxamide] | <1 | 64.5% | <1
CCOc1ccc(-n2nc(C(N)=O)c3c2C(=O)N(c2ccc(-n4cccc(C)c4=O)c(C)c2)CC3)cc1F [A 40, 1-(3-fluoro-4-ethoxyphenyl)-6-(3-methyl-4-(3-methyl-2-oxopyridin-1(2H)-yl)phenyl)-7-oxo-4,5,6,7-tetrahydro-1H-pyrazolo[3,4-c]pyridine-3-carboxamide] | <1 | 63.4% | <1
